B1: bovine uroplakin II (mature) (other)
chain: ELVSVVDSGSGFTVTRLSAYQVTNLAPGTKYYISYLVTKGASTESSREIPMSTFPRRKAESIGLAMARTGGMVVITVLLSVAMFLLVLGLIIALALGARK

Legend:
[1] = test system: type 1-fimbriated E. coli; test: In vitro bacterial adherence assay: binding of 35S-labelled E. coli to immobilized bovine urothelial plaques (asymmetric unit membranes); settings: 2x10^5 cpm; for effect of sugars on bacterial binding to bovine asymmetrical unit membranes: E. coli SH48 (type 1 only), preincubated with sugar, 0.2 μg immobilized bovine AUM
Description: Purified asymmetric unit membranes were suspended in PBS and incubated in 96-well polystyrene microtiter plates at room temperature for 30 minutes, then at 4° C. for 16 hours. All subsequent steps were carried out at room temperature. After being washed three times with PBS for two hours, the immobilized asymmetric membrane units were incubated with 2% BSA in PBS for two hours, and ^35 S-labelled bacteria were incubated in 2% BSA and 0.1% NaN3 for two hours. The wells were then washed four times with PBS, and the bound bacteria were dissolved in 1% SDS for 30 minutes and quantitated by scintillation counting. All binding studies were performed in triplicate.
Purified bovine urothelial plaques, consisting of asymmetric unit membranes that cover 70-80% of the urothelial apical surface, were immobilized on microtiter wells (0.2 microgram per well). The unoccupied binding sites were blocked with 3% BSA in PBS. BSA was used to coat the control wells. The E. coli strains used were J96, which express type 1 fimbriae as well as P fimbriae carrying the G-1 and G-2 adhesins; SH48, which expresses type 1 fimbriae only; HU849, which expresses P fimbriae carrying G-1 adhesin; IA2, which expresses P fimbriae carrying G-adhesins; and nonfimbriated P678-54.
^35 [S]methionine-labelled bacteria were added to each well (2×10^5 cpm in 10^7 bacteria suspended in PBS). After incubation at 25° C. for two hours, the wells were washed with PBS and the radioactivities of the bound bacteria, dissolved in 1% SDS, were counted. Each value represents the means of triplicates bracketed by the standard deviation (±15%). It should be noted that only the type 1-fimbriated J96 and SH48 strains, but not the P-expressing HU849 and IA2 or the nonfimbriated P678-54, adhered to the asymmetric unit membranes.
In FIG. 1B, the relative contribution of type 1 and P fimbriae in the binding of J96 to asymmetric unit membranes is shown. ^35 S-labelled J96 (2×10^5 cpm) were incubated with immobilized asymmetric unit membranes in the absence or the presence of 2% D-mannose.
To test the effects of sugars on the binding of type-1 fimbriated E. coli to bovine urothelial plaques, 2×10^5 cpm of radiolabeled E. coli (SH48) were preincubated with D-mannose (Man), methyl-α-D-mannopyranoside(MMP), or D-galactose (Gal) before they were incubated with 0.2 μg of immobilized bovine asymmetrical unit membranes.

[2] = test system: type 1-fimbriated bacteria; test: Bacterial (gel) overlay assay: radiolabelled bacteria on SDS/PAGE-resolved uroplakins on nitrocellulose; assay type: binding, E. coli; settings: bovine uroplakins on nitrocellulose, autoradiography
Description: Asymmetric unit membrane proteins were resolved by SDS/PAGE (17% acrylamide; acrylamide/bisacrylamide=10:1) and electrophoretically transferred to nitrocellulose. After a brief incubation in 3% BSA in PBS to block the unoccupied sites, the nitrocellulose sheet was incubated with ^35 [S]methionine-labelled bacteria in 2% BSA and 0.1% NaN3. After three washings in PBS, the nitrocellulose was air-dried and autoradiographed.
To determine which of the asymmetric membrane proteins are responsible for this binding, a gel overlay assay was performed. Uroplakins were resolved by SDS/PAGE (cf. FIGS. 5A and 5B), transferred to nitrocellulose, and incubated with radiolabelled bacteria. […] The two major bacterial binding proteins were identified as the two closely related uroplakin proteins, i.e., the 27 kDa-uroplakin Ia and the 28 kDa-uroplakin Ib, according to their sizes and immunoreactivities (FIG. 5B, lanes 1 and 2). […] To determine whether the carbohydrate moieties of uroplakin I proteins were responsible for the binding of the type 1 fimbriae, as one might expect from the inhibitory effects of mannose (cf. FIG. 4), the effects of deglycosylation were tested, results shown in FIGS. 5D and E. Endo H removed about […] of sugars from uroplakin I proteins (cf. FIG. 5D, lanes 2 and 5). […]

[3] = biological target: E. coli strain SH48, expressing type 1 fimbriae only (FimH adhesin) (E. coli, UniProt P08191); test: overlay of radiolabelled bacteria on SDS/PAGE-resolved uroplakins on nitrocellulose

Molecule	effect of sugars on bacterial binding to bovine asymmetrical unit membranes [1]	inhibition of binding of type 1-fimbriated bacteria to uroplakin protein bands [2]	binding of J96 to asymmetric unit membranes in the presence of mannose ([1]; E. coli strain J96 (type 1 and P fimbriae), 2% D-mannose, immobilized bovine AUM)	binding result [3]
O=C[C@H](O)[C@@H](O)[C@@H](O)[C@H](O)CO [D-galactose]	not	not		
O=C[C@@H](O)[C@@H](O)[C@H](O)[C@H](O)CO [D-mannose]	greatly inhibited	inhibited	completely blocked	
CO[C@H]1O[C@H](CO)[C@@H](O)[C@H](O)[C@@H]1O [methyl-α-D-mannopyranoside]	greatly inhibited			
B1				no binding
